Laboratory results reported in ChEMBL document CHEMBL1201862, “PubChem BioAssay data set” (2004).
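Where inhibition never reached the appropriate level, the endpoint shown equals the highest concentration tested. Otherwise, values were interpolated linearly from a five-concentration, 48-hour dose response in 96-well plates. GI50 marks 50% less growth.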 Calls of active or inactive are those of the source. Cut-off read from the data, not from the text of the source: active = GI50 up to about 1.1 µM and inactive = higher.

Columns and labels:
Test in all cases: NCI-60 cell line screen, 48 h
[1] = system: CAKI-1
[2] = system: SNB-19
[3] = system: NCI-H23
[4] = system: M14
[5] = system: MOLT-4
[6] = system: MDA-N
[7] = system: HCT-15
[8] = system: TK-10
[9] = system: OVCAR-8
[10] = system: SF-268
[11] = system: U-251
[12] = system: SF-295
[13] = system: CCRF-CEM
[14] = system: IGROV-1
[15] = system: OVCAR-3
[16] = system: EKVX
[17] = system: SK-OV-3
[18] = system: MDA-MB-435
[19] = system: A549
[20] = system: NCI/ADR-RES
[21] = system: LOX IMVI
[22] = system: RPMI-8226
[23] = system: HOP-62
[24] = system: Hs-578T
[25] = system: UACC-257
[26] = system: 786-0
[27] = system: SR
[28] = system: MDA-MB-231
[29] = system: K562
[30] = system: NCI-H226
[31] = system: SN12C
[32] = system: SW-620
[33] = system: HCT-116
[34] = system: PC-3
[35] = system: MCF7
[36] = system: SK-MEL-28
[37] = system: Malme-3M
[38] = system: SK-MEL-5
[39] = system: UACC-62
[40] = system: OVCAR-5
[41] = system: HL-60
[42] = system: SF-539
[43] = system: HCC 2998
[44] = system: UO-31
[45] = system: BT-549
[46] = system: COLO 205
[47] = system: HT-29
[48] = system: SNB-75
[49] = system: ACHN
[50] = system: SK-MEL-2
[51] = system: NCI-H460
[52] = system: KM12
[53] = system: DU-145
[54] = system: NCI-H522
[55] = system: HOP-92
[56] = system: OVCAR-4
[57] = system: T47D
[58] = system: RXF 393
[59] = system: A498

O=C(c1ccccc1)c1c(C(F)(F)F)[n+]([O-])c2cc(Cl)c(Cl)cc2[n+]1[O-]
GI50 [1]: 1.58 µM (inactive)
GI50 [2]: 1.56 µM (inactive)
GI50 [3]: 0.565 µM (active)
GI50 [4]: 0.968 µM (active)
GI50 [5]: 0.643 µM (active)
GI50 [6]: 1.79 µM (inactive)
GI50 [7]: 0.535 µM
GI50 [8]: 1.07 µM (active)
GI50 [9]: 2.65 µM (inactive)
GI50 [10]: 0.671 µM (active)
GI50 [11]: 1.23 µM (inactive)
GI50 [12]: 3.21 µM (inactive)
GI50 [13]: 0.467 µM (active)
GI50 [14]: 0.473 µM (active)
GI50 [15]: 0.403 µM (active)
GI50 [16]: 3.27 µM (inactive)
GI50 [17]: 4.8 µM (inactive)
GI50 [18]: 1.41 µM (inactive)
GI50 [19]: 0.736 µM (active)
GI50 [20]: 2.21 µM (inactive)
GI50 [21]: 0.41 µM (active)
GI50 [22]: 0.373 µM (active)
GI50 [23]: 0.357 µM (active)
GI50 [24]: 0.849 µM (active)
GI50 [25]: 0.243 µM (active)
GI50 [26]: 0.502 µM (active)
GI50 [27]: 0.175 µM (active)
GI50 [28]: 0.229 µM (active)
GI50 [29]: 2.24 µM (inactive)
GI50 [30]: 3.02 µM (inactive)
GI50 [31]: 0.658 µM (active)
GI50 [32]: 0.619 µM (active)
GI50 [33]: 0.528 µM (active)
GI50 [34]: 1.18 µM (inactive)
GI50 [35]: 0.557 µM (active)
GI50 [36]: 2.86 µM (inactive)
GI50 [37]: 1.72 µM (inactive)
GI50 [38]: 2 µM (inactive)
GI50 [39]: 3.97 µM (inactive)
GI50 [40]: 1.69 µM (inactive)
GI50 [41]: 0.789 µM (active)
GI50 [42]: 1.5 µM (inactive)
GI50 [43]: 2.16 µM (inactive)
GI50 [44]: 1.47 µM (inactive)
GI50 [45]: 1.39 µM (inactive)
GI50 [46]: 2.93 µM (inactive)
GI50 [47]: 0.473 µM (active)
GI50 [48]: 1.31 µM (inactive)
GI50 [49]: 0.764 µM (active)
GI50 [50]: 3.32 µM (inactive)
GI50 [51]: 1.15 µM (inactive)
GI50 [52]: 0.548 µM (active)
GI50 [53]: 0.45 µM (active)
GI50 [54]: 0.557 µM (active)
GI50 [55]: 7.01 µM (inactive)
GI50 [56]: 1.56 µM (inactive)
GI50 [57]: 1.45 µM (inactive)
GI50 [58]: 1.82 µM (inactive)

COc1ccc(CC2COc3cc(OC)cc(OC)c3C2=O)cc1 (stereo not drawn)
GI50 [1]: 17.5 µM (inactive)
GI50 [59]: 79.3 µM (inactive)
GI50 [2]: 25.2 µM (inactive)
GI50 [3]: 23.6 µM (inactive)
GI50 [4]: 16.4 µM (inactive)
GI50 [5]: 30.3 µM (inactive)
GI50 [6]: 3.76 µM (inactive)
GI50 [7]: 9.51 µM
GI50 [8]: 21.3 µM (inactive)
GI50 [9]: 26.1 µM (inactive)
GI50 [10]: 32.7 µM (inactive)
GI50 [11]: 37 µM (inactive)
GI50 [12]: 17.5 µM (inactive)
GI50 [14]: 28.7 µM (inactive)
GI50 [15]: 18.9 µM (inactive)
GI50 [16]: 29.5 µM (inactive)
GI50 [17]: 19.8 µM (inactive)
GI50 [18]: 3.18 µM (inactive)
GI50 [19]: 33.9 µM (inactive)
GI50 [20]: 8.34 µM (inactive)
GI50 [21]: 34.5 µM (inactive)
GI50 [22]: 15.3 µM (inactive)
GI50 [23]: 24.9 µM (inactive)
GI50 [24]: 17.5 µM (inactive)
GI50 [25]: 32.5 µM (inactive)
GI50 [26]: 19 µM (inactive)
GI50 [27]: 4.57 µM (inactive)
GI50 [28]: 33.3 µM (inactive)
GI50 [29]: 31 µM (inactive)
GI50 [31]: 38.9 µM (inactive)
GI50 [32]: 29.8 µM (inactive)
GI50 [33]: 15.3 µM (inactive)
GI50 [34]: 22.5 µM (inactive)
GI50 [35]: 36 µM (inactive)
GI50 [36]: 20.7 µM (inactive)
GI50 [37]: 15.3 µM (inactive)
GI50 [38]: 21.1 µM (inactive)
GI50 [39]: 32.8 µM (inactive)
GI50 [40]: 24.7 µM (inactive)
GI50 [41]: 13.2 µM (inactive)
GI50 [42]: 14.4 µM (inactive)
GI50 [44]: 24.7 µM (inactive)
GI50 [45]: 44.2 µM (inactive)
GI50 [46]: 14.8 µM (inactive)
GI50 [47]: 17.6 µM (inactive)
GI50 [49]: 46.8 µM (inactive)
GI50 [50]: 36.5 µM (inactive)
GI50 [51]: 29.6 µM (inactive)
GI50 [52]: 8.81 µM (inactive)
GI50 [53]: 21.8 µM (inactive)
GI50 [54]: 9.14 µM (inactive)
GI50 [55]: 25.9 µM (inactive)
GI50 [56]: 17.2 µM (inactive)
GI50 [57]: 16.7 µM (inactive)
GI50 [58]: 26.8 µM (inactive)

Cc1ccc2c(c1)[n+]([O-])c(N)n[n+]2[O-]
GI50 [1]: > 100 µM (inactive)
GI50 [59]: 75.3 µM (inactive)
GI50 [2]: > 100 µM (inactive)
GI50 [3]: 63.2 µM (inactive)
GI50 [4]: > 100 µM (inactive)
GI50 [5]: > 100 µM (inactive)
GI50 [6]: > 100 µM (inactive)
GI50 [7]: 64.9 µM
GI50 [8]: > 100 µM (inactive)
GI50 [9]: > 100 µM (inactive)
GI50 [10]: > 100 µM (inactive)
GI50 [11]: > 100 µM (inactive)
GI50 [12]: > 100 µM (inactive)
GI50 [13]: 91.2 µM (inactive)
GI50 [14]: 51.5 µM (inactive)
GI50 [15]: > 100 µM (inactive)
GI50 [16]: > 100 µM (inactive)
GI50 [17]: > 100 µM (inactive)
GI50 [18]: > 100 µM (inactive)
GI50 [19]: > 100 µM (inactive)
GI50 [20]: > 100 µM (inactive)
GI50 [21]: 85.3 µM (inactive)
GI50 [22]: > 100 µM (inactive)
GI50 [23]: > 100 µM (inactive)
GI50 [24]: > 100 µM (inactive)
GI50 [25]: > 100 µM (inactive)
GI50 [26]: > 100 µM (inactive)
GI50 [27]: > 100 µM (inactive)
GI50 [28]: > 100 µM (inactive)
GI50 [29]: > 100 µM (inactive)
GI50 [30]: > 100 µM (inactive)
GI50 [31]: > 100 µM (inactive)
GI50 [32]: > 100 µM (inactive)
GI50 [33]: > 100 µM (inactive)
GI50 [34]: > 100 µM (inactive)
GI50 [35]: > 100 µM (inactive)
GI50 [36]: > 100 µM (inactive)
GI50 [38]: 37.6 µM (inactive)
GI50 [39]: > 10 µM (inactive)
GI50 [40]: > 100 µM (inactive)
GI50 [41]: > 100 µM (inactive)
GI50 [42]: > 100 µM (inactive)
GI50 [44]: > 100 µM (inactive)
GI50 [45]: > 100 µM (inactive)
GI50 [46]: 63.1 µM (inactive)
GI50 [47]: > 100 µM (inactive)
GI50 [48]: 58.1 µM (inactive)
GI50 [49]: > 100 µM (inactive)
GI50 [50]: > 100 µM (inactive)
GI50 [51]: 47.8 µM (inactive)
GI50 [52]: > 100 µM (inactive)
GI50 [53]: > 100 µM (inactive)
GI50 [54]: 39.6 µM (inactive)
GI50 [56]: > 100 µM (inactive)
GI50 [57]: 93.5 µM (inactive)
